# In patent US12090225B2 (Avalyn Pharma Inc., priority 2018, dated 2024):
# Read-outs that look alike come from different tables or passages of the source.
# Tests used:
# [1] = Apparent solubility of nintedanib HBr laboratory scale batches; type: physicochemical
# From the text: During this process, a new polymorphic form was identified (pattern X)
# [2] = Aqueous solubility assessment of salts; type: physicochemical
# [3] = Pattern stability screen of potential salts (40° C./75% RH, XRPD); type: physicochemical
# Procedure: XRPD analysis was carried out on a PANalytical X'pert pro, scanning the samples between 3 and 35° 20. The material was gently compressed and loaded onto a multi-well plate with Kapton or Mylar polymer film to support the sample.
# Primary Salt Screening. […] The solvent systems shown in Table were selected for salt screening. For sulfonic acids MEK was used instead of methanol and acetone:water 50:50 (v/v) was used instead of IPA:water to avoid any potential genotoxic impurities. Ca. […] If the acid was insoluble in the selected solvent, a slurry was used. If the acid was a liquid it was added to the API slurry from a stock solution in the allocated solvent. The mixtures of API/counterion/solvent were temperature cycled between ambient and 40° C. in 4 hour cycles for ca. 3 days. Any solids present were isolated and allowed to dry at ambient conditions, for ca. 30 minutes prior to analysis by XRPD. Where solutions were obtained they were evaporated to obtain solid material.
# [4] = Dynamic Vapour Sorption (DVS) hygroscopicity; type: physicochemical; conditions: for DVS mass uptake at 90% RH: 25° C., uptake from input material; for Hygroscopicity: DVS
# Procedure: Dynamic Vapour Sorption (DVS). Approximately, 10 mg of sample was placed into a mesh vapour sorption balance pan and loaded into a DVS-1 or DVS Advantage dynamic vapour sorption balance by Surface Measurement Systems. The sample was subjected to a ramping profile from 40-90% relative humidity (RH) at 10% increments, maintaining the sample at each step until a stable weight had been achieved (dm/dt 0.004%, minimum step length 30 minutes, maximum step length 500 minutes) at 25° C. After completion of the sorption cycle, the sample was dried using the same procedure to 0% RH and then a second sorption cycle back to 40% RH. Two cycles were performed. The weight change during the sorption/desorption cycles were plotted, allowing for the hygroscopic nature of the sample to be determined. XRPD analysis was then carried out on any solid retained.
# [5] = Disproportionation/hydration studies (pH, XRPD pattern); type: physicochemical
# From the text: No XRPD data could be compiled on the hydration or disproportionation of the salt due to the high solubility in water and acetone/water mixtures.
# The salt only remained Pattern 1 at 0.3 aw. New patterns 6 and 7 are likely hydrated due to the high water activity conditions for production.
# [6] = 7 day stability testing of salts (40° C./75% RH, 80° C., ambient light; HPLC purity, XRPD); type: physicochemical; conditions: for XRPD pattern after 7 day stability testing: listed as phosphate salt
# Procedure: High Performance Liquid Chromatography-Ultraviolet Detection (HPLC-UV): Instrument: Dionex Ultimate 3000; Column: Acquity CSH C18 100 mm×2.1 mm 1.7 μm; Column Temperature: 50° C.; Autosampler Temperature: Ambient; UV wavelength: 210 nm; Injection Volume: 4 μL; Flow Rate: 0.6 mL/min; Mobile Phase A: 0.1% formic acid in water; Mobile Phase B: 0.1% formic acid in acetonitrile. The HPLC method used the gradient in Table 2.
# FT-IR appeared to be consistent with the structure. […] The material was physically stable to changes in temperature and humidity when stored for one week.
# A new, poorly crystalline pattern was produced when stored at 40° C./75% RH—Pattern 4.
# Purity of these materials remained unchanged (as shown in Table) apart from the sample stored at ambient light, where a 0.5% drop in purity was observed.
# [7] = Human inhaled dose projection vs Ofev 150 mg oral; conditions: 0.42 mg inhaled vs Ofev 150 mg oral
# [8] = Inhaled pharmacokinetics of fixed combination nintedanib esylate and pirfenidone; type: in vivo, C57BL/6 mice; conditions: 10.0 mg/kg each IT; for half-life: read-out: Elimination half-life (alpha-phase)
# Procedure: Plasma and lung tissue samples were taken 2, 5, 10, 20, 40 min and 1, 2, and 4 hours post dose. Nintedanib was extracted and quantitated as μg/mL plasma and μg/gram lung tissue.
# [9] = Inhaled pharmacokinetics of nintedanib salt forms (intratracheal); type: in vivo, C57BL/6 mice; conditions: C57BL/6 mice; for AUC 0-last / Elimination half-life (alpha-phase): 1.0 mg/kg IT; for Cmax: 1.0 mg/kg IT (base equivalent)
# [10] = pH-solubility of nintedanib HBr Pattern 4 and Pattern X; type: physicochemical; conditions: distilled water, over 48 hours, UV/vis 390 nm, unit assumed
# Procedure: The solubility of Pattern 4 and Pattern X at various pH values were determined by UV/vis spectrophotometry. Excess Pattern 4 and Pattern X HBr salts were added to distilled water, vortexed at high speed and the pH was adjusted to the target value by adding 1N HCl or 1N NaOH. The test solutions were mixed on a magnetic stirrer for over 48 hours, then filtered through a 0.22 μm nylon membrane syringe filter and analyzed by uv/vis spectrophotometry at 390 nm. […] The solubility of both polymorphic forms decreases with increasing pH. Both polymorphic forms have similar solubility profile.
# [11] = Temperature-solubility of nintedanib HBr Pattern 4 and Pattern X; type: physicochemical; conditions: distilled water, over 48 hours
# Procedure: During this time period, the samples were periodically taken out of the storage, vortexed, and returned to storage condition. At the end of the incubation period, the test solutions were filtered through a 0.22 μm nylon membrane syringe filter and analyzed by uv/vis spectrophotometry (at 390 nm) for drug concentration. Table 29 summarizes the solubility of both salt forms as a function of temperature. The solubility of both polymorphic forms increases with increasing temperature. Both polymorphic forms have similar solubility profiles.
# [12] = Water Activity 0.3 (acetone/water)
# [13] = Water Activity 0.6 (acetone/water)
# [14] = Water Activity 0.9 (acetone/water)
# [15] = female, C57BL/6, mouse, inhaled or intranasal, Lung (whole lung homogenate)
# [16] = female, C57BL/6, mouse, inhaled or intranasal, Plasma
molecule,measurement,setting,value
Br.COC(=O)c1ccc2c(c1)NC(=O)C2=C(Nc1ccc(N(C)C(=O)CN2CCN(C)CC2)cc1)c1ccccc1 [AP178d],Apparent Solubility,[1],1940 µg/mL
Br.COC(=O)c1ccc2c(c1)NC(=O)C2=C(Nc1ccc(N(C)C(=O)CN2CCN(C)CC2)cc1)c1ccccc1 [AP178w],Apparent Solubility,[1],1010 µg/mL
COC(=O)c1ccc2c(c1)NC(=O)/C2=C(\Nc1ccc(N(C)C(=O)CN2CCN(C)CC2)cc1)c1ccccc1.O=P(O)(O)O.O=P(O)(O)O [Phosphate],pH at 6 h,"[2]; salt in water, after agitation",3.00
same,pH at 18 h,"[2]; salt in water, after agitation",2.11
same,Initial pH,"[2]; salt in water, solubility assessment",3.43
same,XRPD pattern after 72 hrs 40° C./75% RH,[3]; Initial pattern 1,1
same,XRPD pattern after 72 hrs 40° C./75% RH,[3]; Initial pattern 2,2
same,DVS mass uptake at 90% RH,[4],further 10.6% uptake up
same,DVS mass uptake at 90% RH,[4]; listed as phosphate salt,ca. 10.6%
same,Hygroscopicity,[4],Hygroscopic
same,Hygroscopicity,[4]; listed as phosphate salt,hygroscopic
same,pH Post-Agitation,[5]; [12],2.68
same,pH Pre-Agitation,[5]; [12],3.08
same,pH Post-Agitation,[5]; [13],2.52
same,pH Pre-Agitation,[5]; [13],2.60
same,pH Post-Agitation,[5]; [14],2.35
same,pH Pre-Agitation,[5]; [14],2.34
same,pH Post-Agitation,[5]; Water Activity 1.0 (water),1.78
same,pH Pre-Agitation,[5]; Water Activity 1.0 (water),2.75
same,Purity (%),"[6]; 40° C./75% RH, 7 day stability testing",99.8%
same,XRPD pattern after 7 day stability testing,[6]; 40° C./75% RH,Pattern 4
same,XRPD pattern after 7 day stability testing,[6]; 80° C. and ambient conditions/light,remain Pattern 3
same,Purity (%),"[6]; 80° C., 7 day stability testing",99.2%
same,Purity (%),"[6]; Ambient, 7 day stability testing",99.6%
same,Purity (%),[6]; Input,99.9%
Br.COC(=O)c1ccc2c(c1)NC(=O)C2=C(Nc1ccc(N(C)C(=O)CN2CCN(C)CC2)cc1)c1ccccc1 [AP152],Apparent Solubility,[1],1950 µg/mL
Br.COC(=O)c1ccc2c(c1)NC(=O)C2=C(Nc1ccc(N(C)C(=O)CN2CCN(C)CC2)cc1)c1ccccc1 [AP069],Apparent Solubility,[1],1020 µg/mL
COC(=O)c1ccc2c(c1)NC(=O)/C2=C(\Nc1ccc(N(C)C(=O)CN2CCN(C)CC2)cc1)c1ccccc1 [Inhaled nintedanib],"% Pharmacokinetics (inhaled compared to oral), AUC",[7]; lung,1047%
same,"% Pharmacokinetics (inhaled compared to oral), Cmax",[7]; lung,2600%
same,"% Pharmacokinetics (inhaled compared to oral), AUC",[7]; plasma,100%
same,"% Pharmacokinetics (inhaled compared to oral), Cmax",[7]; plasma,83%
Maleic acid,XRPD pattern after 72 hrs 40° C./75% RH,[3]; Initial pattern 1,1
same,XRPD pattern after 72 hrs 40° C./75% RH,[3]; Initial pattern 2,2
Br.COC(=O)c1ccc2c(c1)NC(=O)C2=C(Nc1ccc(N(C)C(=O)CN2CCN(C)CC2)cc1)c1ccccc1 [AP036],Apparent Solubility,[1],970 µg/mL
CC(=O)O [Acetate],XRPD pattern after 72 hrs 40° C./75% RH,[3]; Initial pattern 1,1(FB)
same,XRPD pattern after 72 hrs 40° C./75% RH,[3]; Initial pattern 2,1
COC(=O)c1ccc2c(c1)NC(=O)/C2=C(\Nc1ccc(N(C)C(=O)CN2CCN(C)CC2)cc1)c1ccccc1.O=S(=O)(O)CCO [HESA],XRPD pattern after 72 hrs 40° C./75% RH,[3]; Initial pattern 1,2
same,XRPD pattern after 72 hrs 40° C./75% RH,[3]; Initial pattern 2,2
Cc1ccc(=O)n(-c2ccccc2)c1 [Pirfenidone],AUC 0-last,[8]; Lung (whole lung homogenate),5.2 mg·h/kg
same,Cmax,[8]; [15],279000 ng/g
same,half-life,[8]; [15],0.7 min
same,AUC(0-t),[8]; [16],3800 ng·h/mL
same,Cmax,[8]; [16],7900 ng/mL
same,half-life,[8]; [16],8.9 min
O=C(O)/C=C/C(=O)O [Fumarate],pH (aqueous solubility measurement),[2]; primary screen samples,6.41
same,XRPD pattern after 72 hrs 40° C./75% RH,[3]; Initial pattern 1,1
same,XRPD pattern after 72 hrs 40° C./75% RH,[3]; Initial pattern 2,2(MU)
Br.COC(=O)c1ccc2c(c1)NC(=O)C2=C(Nc1ccc(N(C)C(=O)CN2CCN(C)CC2)cc1)c1ccccc1 [AP018],Apparent Solubility,[1],2040 µg/mL
Br.COC(=O)c1ccc2c(c1)NC(=O)C2=C(Nc1ccc(N(C)C(=O)CN2CCN(C)CC2)cc1)c1ccccc1 [AP177w],Apparent Solubility,[1],1030 µg/mL
COC(=O)c1ccc2c(c1)NC(=O)/C2=C(\Nc1ccc(N(C)C(=O)CN2CCN(C)CC2)cc1)c1ccccc1.Cl [Nintedanib chloride],AUC 0-last,[9]; lung (whole lung homogenate),60.1 mg·h/kg
same,Elimination half-life (alpha-phase),[9]; lung (whole lung homogenate),3.9 min
same,Cmax,[9]; plasma,400 ng/mL
same,AUC 0-last,[9]; plasma,200 ng·h/mL
same,Elimination half-life (alpha-phase),[9]; plasma,1.7 min
"Br.COC(=O)c1ccc2c(c1)NC(=O)/C2=C(\Nc1ccc(N(C)C(=O)CN2CCN(C)CC2)cc1)c1ccccc1 [Nintedanib HBr Pattern X, Nintedanib hydrobromide, XRPD Pattern X]",solubility,[10]; pH 3.1,1860 µg/mL
same,solubility,[10]; pH 3.9,1720 µg/mL
same,solubility,[10]; pH 4.4,1490 µg/mL
same,solubility,[10]; pH 5.1,1400 µg/mL
same,Nintedanib HBr Solubility,[11]; 5° C.,650 µg/mL
same,Nintedanib HBr Solubility,[11]; 22° C.,1490 µg/mL
same,Nintedanib HBr Solubility,[11]; 40° C.,3410 µg/mL
N[C@@H](CC(=O)O)C(=O)O [L-Aspartic acid],XRPD pattern after 72 hrs 40° C./75% RH,[3]; Initial pattern 1,1
"Br.COC(=O)c1ccc2c(c1)NC(=O)/C2=C(\Nc1ccc(N(C)C(=O)CN2CCN(C)CC2)cc1)c1ccccc1 [Nintedanib HBr Pattern 4, Nintedanib hydrobromide, XRPD Pattern 4]",solubility,[10]; pH 3.1,2010 µg/mL
same,solubility,[10]; pH 3.9,1470 µg/mL
same,solubility,[10]; pH 4.7,1380 µg/mL
same,solubility,[10]; pH 5.3,1070 µg/mL
same,Nintedanib HBr Solubility,[11]; 5° C.,790 µg/mL
same,Nintedanib HBr Solubility,[11]; 22° C.,1380 µg/mL
same,Nintedanib HBr Solubility,[11]; 40° C.,3200 µg/mL
Br.COC(=O)c1ccc2c(c1)NC(=O)C2=C(Nc1ccc(N(C)C(=O)CN2CCN(C)CC2)cc1)c1ccccc1 [AP177d],Apparent Solubility,[1],2050 µg/mL
Br.COC(=O)c1ccc2c(c1)NC(=O)/C2=C(\Nc1ccc(N(C)C(=O)CN2CCN(C)CC2)cc1)c1ccccc1 [Nintedanib bromide],AUC 0-last,[9]; lung (whole lung homogenate),51.2 mg·h/kg
same,Elimination half-life (alpha-phase),[9]; lung (whole lung homogenate),4.1 min
same,Cmax,[9]; plasma,200 ng/mL
same,AUC 0-last,[9]; plasma,200 ng·h/mL
same,Elimination half-life (alpha-phase),[9]; plasma,2.4 min
COC(=O)c1ccc2c(c1)NC(=O)/C2=C(\Nc1ccc(N(C)C(=O)CN2CCN(C)CC2)cc1)c1ccccc1.CS(=O)(=O)O [MSA],XRPD pattern after 72 hrs 40° C./75% RH,[3]; Initial pattern 1,1
same,XRPD pattern after 72 hrs 40° C./75% RH,[3]; Initial pattern 2,1
Saccharin,Solubility (aqueous),[2],<625 µg/mL
same,pH (aqueous solubility measurement),[2],5.51
same,XRPD pattern after 72 hrs 40° C./75% RH,[3]; Initial pattern 1,2
same,XRPD pattern after 72 hrs 40° C./75% RH,[3]; Initial pattern 2,2
Br.COC(=O)c1ccc2c(c1)NC(=O)C2=C(Nc1ccc(N(C)C(=O)CN2CCN(C)CC2)cc1)c1ccccc1 [AP064],Apparent Solubility,[1],1960 µg/mL
Br.COC(=O)c1ccc2c(c1)NC(=O)/C2=C(\Nc1ccc(N(C)C(=O)CN2CCN(C)CC2)cc1)c1ccccc1 [AP143],Apparent Solubility,[1],960 µg/mL
O=S(=O)(O)O [Sulfuric acid],XRPD pattern after 72 hrs 40° C./75% RH,[3]; Initial pattern 1,1
same,XRPD pattern after 72 hrs 40° C./75% RH,[3]; Initial pattern 2,1
same,XRPD pattern after 72 hrs 40° C./75% RH,[3]; Initial pattern 3,3
same,XRPD pattern after 72 hrs 40° C./75% RH,[3]; Initial pattern 4,3
